Legend:
[1] = biological target: AP2-associated protein kinase 1 (Homo sapiens, UniProt Q2M2I8); conditions: at 10 µM
[2] = biological target: Mitogen-activated protein kinase 9 (Homo sapiens, UniProt P45984); assay: Selectivity interaction (Ambit KINOMEscan and KiNATiv profiling in Jurkat cells) EUB0000090b MAPK9; format: cell-based; conditions: at 1 µM
[3] = biological target: Death-associated protein kinase 3 (Homo sapiens) (UniProt O43293); assay: Selectivity interaction (Ambit KINOMEscan and KiNATiv profiling in Jurkat cells) EUB0000090b DAPK3; format: cell-based; conditions: at 1 µM
[4] = biological target: Mitogen-activated protein kinase kinase kinase 20 (Homo sapiens) (UniProt Q9NYL2); assay: Selectivity interaction (KinomeScan (DiscoverX)) EUB0000655a MAP3K20; conditions: at 10 µM
Sequence of Mitogen-activated protein kinase kinase kinase 20 (Homo sapiens) (Q9NYL2 2-800 limits assumed): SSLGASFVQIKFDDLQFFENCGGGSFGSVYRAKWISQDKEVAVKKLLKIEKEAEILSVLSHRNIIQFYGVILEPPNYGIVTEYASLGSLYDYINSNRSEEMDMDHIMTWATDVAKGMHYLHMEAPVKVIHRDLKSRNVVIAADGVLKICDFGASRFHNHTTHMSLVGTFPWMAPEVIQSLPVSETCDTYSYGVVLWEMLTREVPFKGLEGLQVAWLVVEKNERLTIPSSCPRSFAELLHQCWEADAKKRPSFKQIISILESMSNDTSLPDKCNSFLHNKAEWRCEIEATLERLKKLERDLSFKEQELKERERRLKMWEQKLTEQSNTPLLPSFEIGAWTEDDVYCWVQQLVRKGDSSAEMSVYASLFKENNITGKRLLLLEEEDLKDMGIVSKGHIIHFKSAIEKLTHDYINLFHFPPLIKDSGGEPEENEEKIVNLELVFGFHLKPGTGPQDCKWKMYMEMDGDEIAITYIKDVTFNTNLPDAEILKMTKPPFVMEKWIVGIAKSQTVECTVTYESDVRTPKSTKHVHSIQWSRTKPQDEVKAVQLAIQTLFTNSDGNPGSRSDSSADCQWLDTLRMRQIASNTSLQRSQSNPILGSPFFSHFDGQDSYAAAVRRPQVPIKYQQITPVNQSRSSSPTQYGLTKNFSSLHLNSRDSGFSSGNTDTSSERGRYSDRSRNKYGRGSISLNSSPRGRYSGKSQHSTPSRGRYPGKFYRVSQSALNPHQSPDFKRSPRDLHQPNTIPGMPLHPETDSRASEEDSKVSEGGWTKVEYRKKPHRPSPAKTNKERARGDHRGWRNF

[5] = biological target: Phosphatidylinositol 4-kinase beta (Homo sapiens, UniProt Q9UBF8); assay: Selectivity interaction (KinomeScan (DiscoverX)) EUB0000618a PI4KB; conditions: at 10 µM
[6] = system: Epidermal growth factor receptor (Homo sapiens), P00533 [G719C]; assay: (§1) Selectivity interaction (KinomeScan (DiscoverX)) EUB0000618a EGFR; conditions: at 10 µM
[7] = system: Epidermal growth factor receptor (Homo sapiens), P00533 [L858R,T790M]; assay: as §1; conditions: at 10 µM
[8] = system: Epidermal growth factor receptor (Homo sapiens), P00533 [UNDEFINED MUTATION]; assay: as §1; conditions: at 10 µM
[9] = system: Epidermal growth factor receptor (Homo sapiens), P00533 [T790M]; assay: as §1; conditions: at 10 µM
Sequence of Epidermal growth factor receptor (Homo sapiens), P00533 [T790M] (P00533 whole entry T790M): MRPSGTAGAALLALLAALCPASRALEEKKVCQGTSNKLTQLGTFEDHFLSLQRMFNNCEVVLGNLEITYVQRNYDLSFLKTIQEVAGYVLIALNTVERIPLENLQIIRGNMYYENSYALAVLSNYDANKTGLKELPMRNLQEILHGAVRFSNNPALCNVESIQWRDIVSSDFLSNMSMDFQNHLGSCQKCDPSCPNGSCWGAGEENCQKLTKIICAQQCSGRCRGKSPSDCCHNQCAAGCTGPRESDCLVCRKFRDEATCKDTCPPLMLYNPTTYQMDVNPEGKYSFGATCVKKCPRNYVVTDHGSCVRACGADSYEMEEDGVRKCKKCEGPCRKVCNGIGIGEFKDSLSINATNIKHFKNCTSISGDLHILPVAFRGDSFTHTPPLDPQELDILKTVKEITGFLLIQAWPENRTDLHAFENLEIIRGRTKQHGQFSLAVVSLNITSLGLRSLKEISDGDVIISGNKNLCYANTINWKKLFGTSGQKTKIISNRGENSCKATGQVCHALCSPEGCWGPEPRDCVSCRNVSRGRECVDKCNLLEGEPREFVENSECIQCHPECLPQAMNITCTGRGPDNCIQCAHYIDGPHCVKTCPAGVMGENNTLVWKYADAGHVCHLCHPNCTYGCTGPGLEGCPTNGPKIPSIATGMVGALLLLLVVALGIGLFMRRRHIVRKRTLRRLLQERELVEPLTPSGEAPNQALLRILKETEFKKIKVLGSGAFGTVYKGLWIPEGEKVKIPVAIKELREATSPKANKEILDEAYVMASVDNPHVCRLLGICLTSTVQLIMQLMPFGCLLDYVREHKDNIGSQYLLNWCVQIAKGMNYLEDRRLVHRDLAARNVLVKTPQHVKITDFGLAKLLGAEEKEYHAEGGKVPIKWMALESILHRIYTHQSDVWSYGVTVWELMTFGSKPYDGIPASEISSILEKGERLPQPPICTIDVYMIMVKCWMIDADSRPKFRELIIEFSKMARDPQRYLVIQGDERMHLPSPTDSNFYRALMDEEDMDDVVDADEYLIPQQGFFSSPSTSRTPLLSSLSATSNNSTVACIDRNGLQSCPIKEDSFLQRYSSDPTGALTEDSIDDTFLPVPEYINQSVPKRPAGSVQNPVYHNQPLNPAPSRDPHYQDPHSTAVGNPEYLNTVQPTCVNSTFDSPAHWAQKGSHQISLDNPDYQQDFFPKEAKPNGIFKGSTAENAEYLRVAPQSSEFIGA

[10] = system: Epidermal growth factor receptor (Homo sapiens), P00533 [L858R]; assay: as §1; conditions: at 10 µM
[11] = biological target: Rho-associated protein kinase 2 (Homo sapiens, UniProt O75116); assay: Selectivity interaction (ActivX KiNativ screen (ex vivo kinase selectivity in human PBMCs)) EUB0001619a ROCK2; format: cell-based; conditions: PBMC, at 1 µM
Sequence of Rho-associated protein kinase 2 (O75116 whole entry, looked up): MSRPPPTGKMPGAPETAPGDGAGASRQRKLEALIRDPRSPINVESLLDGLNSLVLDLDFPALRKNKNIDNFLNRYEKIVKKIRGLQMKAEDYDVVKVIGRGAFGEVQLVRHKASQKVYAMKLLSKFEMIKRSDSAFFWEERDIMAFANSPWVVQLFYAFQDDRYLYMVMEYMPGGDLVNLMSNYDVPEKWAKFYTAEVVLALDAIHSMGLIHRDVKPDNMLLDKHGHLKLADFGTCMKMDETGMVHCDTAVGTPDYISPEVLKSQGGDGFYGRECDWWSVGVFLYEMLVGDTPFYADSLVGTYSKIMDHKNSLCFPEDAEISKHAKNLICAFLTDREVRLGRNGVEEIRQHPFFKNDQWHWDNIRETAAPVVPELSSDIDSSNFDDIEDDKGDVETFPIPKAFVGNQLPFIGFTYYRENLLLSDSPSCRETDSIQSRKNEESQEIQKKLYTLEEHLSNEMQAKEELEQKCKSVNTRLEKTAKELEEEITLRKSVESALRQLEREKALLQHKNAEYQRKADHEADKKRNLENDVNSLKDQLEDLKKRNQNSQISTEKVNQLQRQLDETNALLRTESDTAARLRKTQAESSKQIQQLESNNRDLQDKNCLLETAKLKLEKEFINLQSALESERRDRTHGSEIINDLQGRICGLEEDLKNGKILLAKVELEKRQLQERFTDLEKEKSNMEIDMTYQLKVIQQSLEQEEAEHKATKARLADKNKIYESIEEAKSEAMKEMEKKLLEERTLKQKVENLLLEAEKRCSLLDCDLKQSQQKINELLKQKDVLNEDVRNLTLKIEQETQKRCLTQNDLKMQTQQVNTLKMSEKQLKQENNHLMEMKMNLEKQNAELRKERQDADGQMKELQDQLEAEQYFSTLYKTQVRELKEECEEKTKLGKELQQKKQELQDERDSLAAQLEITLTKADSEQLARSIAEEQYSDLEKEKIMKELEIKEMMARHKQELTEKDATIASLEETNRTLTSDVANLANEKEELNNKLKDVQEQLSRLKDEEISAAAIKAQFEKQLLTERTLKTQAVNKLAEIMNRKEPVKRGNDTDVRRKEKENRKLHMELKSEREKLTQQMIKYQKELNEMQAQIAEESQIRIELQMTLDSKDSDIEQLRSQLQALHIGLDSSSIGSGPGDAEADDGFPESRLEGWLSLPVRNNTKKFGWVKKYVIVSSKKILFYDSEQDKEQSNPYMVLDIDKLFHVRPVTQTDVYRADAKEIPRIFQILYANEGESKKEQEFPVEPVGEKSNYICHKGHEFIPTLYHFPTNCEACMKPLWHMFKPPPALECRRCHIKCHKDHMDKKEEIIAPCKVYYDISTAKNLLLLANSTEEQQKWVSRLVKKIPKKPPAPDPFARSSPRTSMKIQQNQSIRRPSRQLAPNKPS

[12] = biological target: T1, Serine/threonine-protein kinase BRSK2 (Homo sapiens) (UniProt Q8IWQ3); assay: Selectivity interaction (KinomeScan (DiscoverX)) EUB0001619a BRSK2; conditions: at 1 µM
T1 sequence (whole entry): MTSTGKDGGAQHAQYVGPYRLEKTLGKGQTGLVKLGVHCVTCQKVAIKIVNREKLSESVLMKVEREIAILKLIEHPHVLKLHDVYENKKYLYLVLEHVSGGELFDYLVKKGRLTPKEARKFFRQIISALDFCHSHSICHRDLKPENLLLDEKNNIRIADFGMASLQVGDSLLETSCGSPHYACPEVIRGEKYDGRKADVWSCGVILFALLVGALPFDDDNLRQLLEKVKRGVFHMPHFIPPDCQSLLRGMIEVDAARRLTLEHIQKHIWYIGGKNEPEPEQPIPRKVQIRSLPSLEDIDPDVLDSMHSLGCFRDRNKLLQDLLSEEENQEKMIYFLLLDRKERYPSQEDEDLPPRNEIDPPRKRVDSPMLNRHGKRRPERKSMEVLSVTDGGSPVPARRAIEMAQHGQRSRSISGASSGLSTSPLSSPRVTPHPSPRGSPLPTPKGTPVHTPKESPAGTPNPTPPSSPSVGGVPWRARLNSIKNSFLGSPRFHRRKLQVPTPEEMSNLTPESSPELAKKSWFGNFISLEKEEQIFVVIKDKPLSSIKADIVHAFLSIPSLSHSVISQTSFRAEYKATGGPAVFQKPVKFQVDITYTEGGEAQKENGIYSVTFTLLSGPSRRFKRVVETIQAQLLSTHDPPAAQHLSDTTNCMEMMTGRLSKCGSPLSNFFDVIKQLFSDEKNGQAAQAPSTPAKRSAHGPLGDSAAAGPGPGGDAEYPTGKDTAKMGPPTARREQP

[13] = biological target: Serine/threonine-protein kinase VRK2 (Homo sapiens) (UniProt Q86Y07); assay: Selectivity interaction (KinomeScan (DiscoverX)) EUB0000595a VRK2; conditions: at 10 µM
[14] = biological target: T2, Serine/threonine-protein kinase D2 (Homo sapiens) (UniProt Q9BZL6); assay: Selectivity interaction (Kinase panel (KiNativ target engagement assay in Jurkat cells)) EUB0001635a PRKD2; format: cell-based; conditions: at 1 µM
T2 sequence (whole entry): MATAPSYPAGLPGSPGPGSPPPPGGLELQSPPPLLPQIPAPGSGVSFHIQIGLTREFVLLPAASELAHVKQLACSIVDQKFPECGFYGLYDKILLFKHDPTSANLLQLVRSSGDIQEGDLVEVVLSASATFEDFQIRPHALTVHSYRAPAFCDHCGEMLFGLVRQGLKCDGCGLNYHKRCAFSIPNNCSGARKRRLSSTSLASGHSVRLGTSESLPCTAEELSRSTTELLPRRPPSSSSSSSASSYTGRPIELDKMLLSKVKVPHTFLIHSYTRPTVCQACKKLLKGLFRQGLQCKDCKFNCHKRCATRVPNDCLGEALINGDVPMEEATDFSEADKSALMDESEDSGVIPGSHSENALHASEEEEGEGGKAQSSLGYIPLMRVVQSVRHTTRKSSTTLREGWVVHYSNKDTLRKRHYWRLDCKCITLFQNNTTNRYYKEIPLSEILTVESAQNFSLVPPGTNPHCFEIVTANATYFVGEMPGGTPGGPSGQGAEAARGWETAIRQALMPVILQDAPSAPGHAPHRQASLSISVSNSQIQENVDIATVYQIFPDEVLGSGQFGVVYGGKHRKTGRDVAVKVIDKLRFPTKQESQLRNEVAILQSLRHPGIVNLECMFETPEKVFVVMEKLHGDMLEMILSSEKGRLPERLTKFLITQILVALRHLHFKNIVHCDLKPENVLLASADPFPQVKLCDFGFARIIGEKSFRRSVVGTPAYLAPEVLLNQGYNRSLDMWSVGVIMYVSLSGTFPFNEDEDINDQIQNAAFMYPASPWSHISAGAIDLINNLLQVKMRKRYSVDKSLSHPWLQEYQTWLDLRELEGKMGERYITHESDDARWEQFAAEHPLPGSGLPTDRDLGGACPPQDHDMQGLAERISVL

[15] = biological target: Calcium/calmodulin-dependent protein kinase kinase 2 (Homo sapiens) (UniProt Q96RR4); assay: Selectivity interaction (ActivX KiNativ screen (kinase selectivity in THP-1 cell lysates)) EUB0000639a CAMKK2; format: subcellular; conditions: lysate, at 0.01 µM
Sequence of Calcium/calmodulin-dependent protein kinase kinase 2 (Homo sapiens) (Q96RR4 2-588 limits assumed): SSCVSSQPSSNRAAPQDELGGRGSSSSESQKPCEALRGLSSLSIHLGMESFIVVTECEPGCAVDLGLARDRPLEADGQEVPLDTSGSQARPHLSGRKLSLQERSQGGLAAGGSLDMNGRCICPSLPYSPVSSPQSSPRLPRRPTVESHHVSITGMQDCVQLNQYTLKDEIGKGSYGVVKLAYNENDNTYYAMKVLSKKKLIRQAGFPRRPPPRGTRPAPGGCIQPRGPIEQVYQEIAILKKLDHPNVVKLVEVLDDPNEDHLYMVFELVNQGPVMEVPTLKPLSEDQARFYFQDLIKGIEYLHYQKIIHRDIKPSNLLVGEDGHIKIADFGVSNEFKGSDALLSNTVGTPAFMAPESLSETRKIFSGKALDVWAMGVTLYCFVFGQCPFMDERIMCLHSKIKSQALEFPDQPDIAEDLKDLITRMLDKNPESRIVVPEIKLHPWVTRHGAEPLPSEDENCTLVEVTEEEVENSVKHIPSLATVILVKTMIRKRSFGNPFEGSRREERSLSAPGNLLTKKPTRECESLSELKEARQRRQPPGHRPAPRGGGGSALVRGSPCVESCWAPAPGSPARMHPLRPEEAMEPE

[16] = biological target: Phosphatidylinositol 4,5-bisphosphate 3-kinase catalytic subunit alpha isoform (Homo sapiens) (UniProt P42336); assay: (§2) Selectivity interaction (KinomeScan (DiscoverX)) EUB0000229b PIK3CA; conditions: at 10 µM
[17] = system: Phosphatidylinositol 4,5-bisphosphate 3-kinase catalytic subunit alpha isoform (Homo sapiens), P42336 [E545A]; assay: as §2; conditions: at 1 µM
[18] = system: Phosphatidylinositol 4,5-bisphosphate 3-kinase catalytic subunit alpha isoform (Homo sapiens), P42336 [E545K]; assay: as §2; conditions: at 1 µM
[19] = system: Phosphatidylinositol 4,5-bisphosphate 3-kinase catalytic subunit alpha isoform (Homo sapiens), P42336 [I800L]; assay: as §2; conditions: at 1 µM
[20] = system: Phosphatidylinositol 4,5-bisphosphate 3-kinase catalytic subunit alpha isoform (Homo sapiens), P42336 [Q546K]; assay: as §2; conditions: at 1 µM
Sequence of Phosphatidylinositol 4,5-bisphosphate 3-kinase catalytic subunit alpha isoform (Homo sapiens), P42336 [Q546K] (P42336 whole entry Q546K, canonical isoform): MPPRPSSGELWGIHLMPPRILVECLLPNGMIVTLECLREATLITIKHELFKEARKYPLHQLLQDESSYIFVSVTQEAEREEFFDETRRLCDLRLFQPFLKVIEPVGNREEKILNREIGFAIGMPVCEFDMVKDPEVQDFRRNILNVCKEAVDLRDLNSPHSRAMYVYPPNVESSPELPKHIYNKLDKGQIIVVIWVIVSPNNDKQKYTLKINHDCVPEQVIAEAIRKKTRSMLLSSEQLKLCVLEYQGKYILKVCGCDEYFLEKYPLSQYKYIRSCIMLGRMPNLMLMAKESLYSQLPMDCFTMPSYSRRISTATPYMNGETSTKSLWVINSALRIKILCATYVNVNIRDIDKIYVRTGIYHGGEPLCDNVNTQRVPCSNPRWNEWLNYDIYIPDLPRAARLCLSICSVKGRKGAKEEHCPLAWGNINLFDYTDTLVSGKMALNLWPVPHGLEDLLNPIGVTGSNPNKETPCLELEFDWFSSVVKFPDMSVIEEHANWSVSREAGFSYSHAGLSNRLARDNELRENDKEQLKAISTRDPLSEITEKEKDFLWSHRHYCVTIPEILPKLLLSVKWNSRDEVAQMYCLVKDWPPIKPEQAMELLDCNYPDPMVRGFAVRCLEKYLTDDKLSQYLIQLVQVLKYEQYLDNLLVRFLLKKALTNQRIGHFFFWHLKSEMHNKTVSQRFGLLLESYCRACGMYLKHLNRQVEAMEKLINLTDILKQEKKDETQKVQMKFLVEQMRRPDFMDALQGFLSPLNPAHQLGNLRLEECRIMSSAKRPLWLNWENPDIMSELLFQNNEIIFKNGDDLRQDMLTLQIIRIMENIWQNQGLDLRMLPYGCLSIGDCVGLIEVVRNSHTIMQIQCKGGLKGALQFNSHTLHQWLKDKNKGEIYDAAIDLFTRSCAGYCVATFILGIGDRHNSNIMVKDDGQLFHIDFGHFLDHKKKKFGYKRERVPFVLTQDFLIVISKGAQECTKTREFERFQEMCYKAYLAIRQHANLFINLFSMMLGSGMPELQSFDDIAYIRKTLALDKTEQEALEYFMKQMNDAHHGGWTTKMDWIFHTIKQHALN

[21] = system: Tyrosine-protein kinase ABL1 (Homo sapiens), P00519 [T315I]; assay: Selectivity interaction (KinomeScan (DiscoverX)) EUB0000092b ABL1; conditions: at 10 µM

Compound CCN(CC)CCCCNc1ncc2cc(-c3cc(OC)cc(OC)c3)c(NC(=O)NC(C)(C)C)nc2n1 has a % of control [1] of 100%.
For CN(C)C/C=C/C(=O)Nc1ccc(C(=O)N2CCCC(Nc3ncc(Cl)c(-c4c[nH]c5ccccc45)n3)C2)cc1 (stereo unspecified), the % of control [2] was 0.55% and the % of control [3] was 100%.
In the case of CN(C)CCOc1ccc(-c2nc(-c3ccncc3)c(-c3ccc4c(c3)CC/C4=N\O)[nH]2)cc1, the % of control [4] is reported as 84%.
Compound O[C@H]1CC[C@H](Nc2ncc3nc(Nc4c(F)cc(F)cc4F)n([C@H]4CCOC4)c3n2)CC1 has a % of control [5] of 100%, a % of control [6] of 20% and a % of control [7] of 85%. It also gave a % of control [8] of 7.4%, a % of control [9] of 72% and a % of control [10] of 17%.
N#Cc1cccc(-c2c[nH]c3ncnc(N4CCOCC4)c23)c1 gave a % of inhibition [11] of 2% and a % of control [12] of 85%.
With COCC(=O)NC/C=C/c1ccc2ncnc(Nc3ccc(Oc4ccc(C)nc4)c(C)c3)c2c1 [CP-724714] the % of control [13] was 100%.
C=CC(=O)Nc1ccc(C(=O)Nc2[nH]nc3c2CN(C(=O)N[C@H](CN(C)C)c2ccccc2)C3(C)C)cc1 was tested, and the % of engagement [14] was -4.9%.
CC[C@@H]1[C@H](F)C(=O)N[C@@H]1COc1nccc2cc(C(N)=O)c(OC)cc12 [ZIMLOVISERTIB] was tested, and the % of inhibition [15] was -0.8%.
COc1cc(N(C)c2ccnc3ccc(C(F)(F)F)cc23)cc(OC)c1OC was tested, and the % binding [16] was 100%, the % binding [17] was 67% and the % binding [18] was 76%. It also gave a % binding [19] of 72% and a % binding [20] of 81%.
For CCC(=O)N1CCN(c2ccc(-n3c(=O)ccc4cnc5ccc(-c6cnc7ccccc7c6)cc5c43)cc2C(F)(F)F)CC1, the % of control [21] was 100%.
